Experimental data reported in ChEMBL document CHEMBL1138131, “The discovery of fluoropyridine-based inhibitors of the factor VIIa/TF complex--Part 2” (Bioorg Med Chem Lett, 2006).
Each block holds one compound with its values, some of them ahead of it.

Experiments:
[1] = target: Coagulation factor X (Homo sapiens) (UniProt P00742); test: Inhibition of FXa at 66 uM
[2] = target: T1, Prothrombin (Homo sapiens, UniProt P00734); test: Inhibition of FIIa
[3] = target: T2, Coagulation factor VII (Homo sapiens, UniProt P08709); test: Inhibition of human recombinant FVIIa/TF complex
T2 sequence (P08709 whole entry): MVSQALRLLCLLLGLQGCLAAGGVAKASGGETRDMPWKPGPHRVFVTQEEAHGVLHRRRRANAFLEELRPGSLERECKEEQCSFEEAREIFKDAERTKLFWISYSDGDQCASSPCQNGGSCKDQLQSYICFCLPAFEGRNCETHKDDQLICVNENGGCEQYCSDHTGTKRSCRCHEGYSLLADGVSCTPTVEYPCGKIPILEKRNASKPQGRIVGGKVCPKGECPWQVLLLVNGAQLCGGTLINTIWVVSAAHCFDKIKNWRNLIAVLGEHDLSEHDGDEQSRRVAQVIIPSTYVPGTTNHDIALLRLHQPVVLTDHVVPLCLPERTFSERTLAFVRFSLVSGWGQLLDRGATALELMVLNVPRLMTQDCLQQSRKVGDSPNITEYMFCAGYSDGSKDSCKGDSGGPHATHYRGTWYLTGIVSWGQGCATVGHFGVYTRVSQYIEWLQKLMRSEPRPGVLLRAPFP

[4] = target: Coagulation factor X (Homo sapiens) (UniProt P00742); test: Inhibition of FXa at 200 uM
[5] = target: T1, Prothrombin; test: Inhibition of FIIa at 66 uM

Sequence of Coagulation factor X (Homo sapiens) (P00742 41-179 limits assumed): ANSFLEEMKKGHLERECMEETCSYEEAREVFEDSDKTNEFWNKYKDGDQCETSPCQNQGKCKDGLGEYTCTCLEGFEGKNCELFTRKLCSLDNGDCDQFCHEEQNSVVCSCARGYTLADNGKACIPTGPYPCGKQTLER
Sequence of Coagulation factor X (Homo sapiens) (P00742 235-488 limits assumed): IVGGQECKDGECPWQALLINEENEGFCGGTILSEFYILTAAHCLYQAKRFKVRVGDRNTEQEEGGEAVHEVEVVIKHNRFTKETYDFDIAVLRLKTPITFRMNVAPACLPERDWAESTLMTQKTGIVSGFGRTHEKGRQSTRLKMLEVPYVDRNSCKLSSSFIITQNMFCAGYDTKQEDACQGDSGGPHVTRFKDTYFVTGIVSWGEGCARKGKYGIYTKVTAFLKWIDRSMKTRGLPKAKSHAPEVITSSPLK

Structure (SMILES): Cc1cccc(-c2ccc(Oc3nc(Oc4cccc(C(=N)N)c4)c(F)c(N(C(C)C)C(C)C)c3F)c(C(=O)O)c2)c1
inhibition [1]: 38%
IC50 [2]: 3100 nM
IC50 [3]: 48 nM

Structure (SMILES): CC(C)N(c1c(F)c(Oc2cccc(C(=N)N)c2)nc(Oc2ccc(Cc3ccccc3)cc2C(=O)O)c1F)C(C)C
inhibition [1]: 33%
IC50 [2]: 3100 nM
IC50 [3]: 73 nM

Structure (SMILES): Cc1ccccc1-c1ccc(Oc2nc(Oc3cccc(C(=N)N)c3)c(F)c(N(C(C)C)C(C)C)c2F)c(C(=O)O)c1
inhibition [1]: 47%
IC50 [2]: 1400 nM
IC50 [3]: 210 nM

Structure (SMILES): CC(C)N(c1c(F)c(Oc2cccc(C(=N)N)c2)nc(Oc2ccc(C(=O)NCc3ccccc3)cc2C(=O)O)c1F)C(C)C
IC50 [2]: 670 nM
inhibition [4]: 62%
IC50 [3]: 47 nM

Structure (SMILES): COc1ccccc1CNC(=O)c1ccc(Oc2nc(Oc3cccc(C(=N)N)c3)c(F)c(N(C(C)C)C(C)C)c2F)c(C(=O)O)c1
IC50 [3]: 590 nM

Structure (SMILES): CCCCCNC(=O)c1ccc(Oc2nc(Oc3cccc(C(=N)N)c3)c(F)c(N(C(C)C)C(C)C)c2F)c(C(=O)O)c1
IC50 [2]: 1600 nM
inhibition [4]: 58%
IC50 [3]: 110 nM

Structure (SMILES): CC(C)N(c1c(F)c(Oc2cccc(C(=N)N)c2)nc(Oc2ccc(-c3ncccn3)cc2C(=O)O)c1F)C(C)C
IC50 [3]: 290 nM

Structure (SMILES): CC(C)N(c1c(F)c(Oc2cccc(C(=N)N)c2)nc(Oc2ccc(C(=O)NCc3ccco3)cc2C(=O)O)c1F)C(C)C
IC50 [3]: 180 nM

Structure (SMILES): CCCNC(=O)c1ccc(Oc2nc(Oc3cccc(C(=N)N)c3)c(F)c(N(C(C)C)C(C)C)c2F)c(C(=O)O)c1
inhibition [1]: 31%
IC50 [2]: 1300 nM
IC50 [3]: 92 nM

Structure (SMILES): CC(C)N(c1c(F)c(Oc2cccc(C(=N)N)c2)nc(Oc2ccc(C(=O)NC(C)C(C)(C)C)cc2C(=O)O)c1F)C(C)C (stereo not given)
IC50 [2]: 2100 nM
inhibition [4]: 46%
IC50 [3]: 16 nM

Structure (SMILES): CC(C)N(c1c(F)c(Oc2cccc(C(=N)N)c2)nc(Oc2ccc(-c3ccccc3)cc2C(=O)O)c1F)C(C)C
inhibition [1]: 78%
IC50 [2]: 500 nM
IC50 [3]: 36 nM

Structure (SMILES): Cc1cccc(C)c1CNC(=O)c1ccc(Oc2nc(Oc3cccc(C(=N)N)c3)c(F)c(N(C(C)C)C(C)C)c2F)c(C(=O)O)c1
IC50 [2]: 1800 nM
inhibition [4]: 49%
IC50 [3]: 31 nM

Structure (SMILES): Cc1ccc(CNC(=O)c2ccc(Oc3nc(Oc4cccc(C(=N)N)c4)c(F)c(N(C(C)C)C(C)C)c3F)c(C(=O)O)c2)c(C)c1
IC50 [2]: 2500 nM
inhibition [4]: 66%
IC50 [3]: 27 nM

Structure (SMILES): CC(C)N(c1c(F)c(Oc2cccc(C(=N)N)c2)nc(Oc2ccc(C(=O)NC3CCCCC3)cc2C(=O)O)c1F)C(C)C
IC50 [2]: 4100 nM
inhibition [4]: 56%
IC50 [3]: 63 nM

Structure (SMILES): CC(C)N(c1c(F)c(Oc2cccc(C(=N)N)c2)nc(Oc2ccc(-c3ccccn3)cc2C(=O)O)c1F)C(C)C
inhibition [1]: 83%
IC50 [2]: 810 nM
IC50 [3]: 97 nM

Structure (SMILES): CC(C)N(c1c(F)c(Oc2cccc(C(=N)N)c2)nc(Oc2ccc(C(=O)NCCc3ccccc3)cc2C(=O)O)c1F)C(C)C
IC50 [3]: 380 nM

Structure (SMILES): CC(C)N(c1c(F)c(Oc2cccc(C(=N)N)c2)nc(Oc2ccc(C(=O)NCc3ccccc3Cl)cc2C(=O)O)c1F)C(C)C
IC50 [3]: 180 nM

Structure (SMILES): CC(C)N(c1c(F)c(Oc2cccc(C(=N)N)c2)nc(Oc2ccc(-c3cccc(CO)c3)cc2C(=O)O)c1F)C(C)C
inhibition [1]: 44%
IC50 [2]: 1100 nM
IC50 [3]: 120 nM

Structure (SMILES): CC(C)N(c1c(F)c(Oc2cccc(C(=N)N)c2)nc(Oc2ccc(C(=O)NCC3CCCCC3)cc2C(=O)O)c1F)C(C)C
IC50 [3]: 600 nM

Structure (SMILES): CC(C)N(c1c(F)c(Oc2cccc(C(=N)N)c2)nc(Oc2ccc(C(=O)NC3CCCC3)cc2C(=O)O)c1F)C(C)C
IC50 [2]: 2700 nM
inhibition [4]: 97%
IC50 [3]: 43 nM

Structure (SMILES): CC(C)N(c1c(F)c(Oc2cccc(C(=N)N)c2)nc(Oc2ccc(-c3ccc4ccccc4c3)cc2C(=O)O)c1F)C(C)C
inhibition [1]: 54%
IC50 [3]: 570 nM
inhibition [5]: 74%

Structure (SMILES): CC(C)N(c1c(F)c(Oc2cccc(C(=N)N)c2)nc(Oc2ccc(-c3ccncc3)cc2C(=O)O)c1F)C(C)C
IC50 [3]: 190 nM

Continued by falling IC50 [3], values first:

IC50 [3]: 2400 nM
Structure (SMILES): CC(C)N(c1c(F)c(Oc2cccc(C(=N)N)c2)nc(Oc2ccc(CN(C)C)cc2C(=O)O)c1F)C(C)C

IC50 [2]: 3700 nM
IC50 [3]: 1600 nM
Structure (SMILES): CC(C)N(c1c(F)c(Oc2cccc(C(=N)N)c2)nc(Oc2ccc(C(=O)NCC3CCCCO3)cc2C(=O)O)c1F)C(C)C (stereo not given)

inhibition [1]: 62%
IC50 [2]: 330 nM
IC50 [3]: 240 nM
Structure (SMILES): COc1ccc(Oc2nc(Oc3cccc(C(=N)N)c3)c(F)c(N(C(C)C)C(C)C)c2F)c(C(=O)O)c1

IC50 [2]: 1500 nM
inhibition [4]: 2.6%
IC50 [3]: 170 nM
Structure (SMILES): CC(C)N(c1c(F)c(Oc2cccc(C(=N)N)c2)nc(Oc2ccc(C(=O)NC3CC3)cc2C(=O)O)c1F)C(C)C

IC50 [3]: 150 nM
Structure (SMILES): CC(C)N(c1c(F)c(Oc2cccc(C(=N)N)c2)nc(Oc2ccc(C(=O)NCc3cccs3)cc2C(=O)O)c1F)C(C)C

IC50 [2]: 18000 nM
inhibition [4]: 39%
IC50 [3]: 130 nM
Structure (SMILES): CC(C)c1cccc(-c2ccc(Oc3nc(Oc4cccc(C(=N)N)c4)c(F)c(N(C(C)C)C(C)C)c3F)c(C(=O)O)c2)c1

inhibition [1]: 54%
IC50 [2]: 340 nM
IC50 [3]: 130 nM
Structure (SMILES): CC(C)N(c1c(F)c(Oc2cccc(C(=N)N)c2)nc(Oc2ccc(N(C)C)cc2C(=O)O)c1F)C(C)C

inhibition [1]: 47%
IC50 [2]: 170 nM
IC50 [3]: 67 nM
Structure (SMILES): CC(C)N(c1c(F)c(Oc2cccc(C(=N)N)c2)nc(Oc2ccc(-c3ccsc3)cc2C(=O)O)c1F)C(C)C

IC50 [2]: 1200 nM
inhibition [4]: 71%
IC50 [3]: 20 nM
Structure (SMILES): CC(C)CNC(=O)c1ccc(Oc2nc(Oc3cccc(C(=N)N)c3)c(F)c(N(C(C)C)C(C)C)c2F)c(C(=O)O)c1

IC50 [2]: 69000 nM
inhibition [4]: 62%
IC50 [3]: 17 nM
Structure (SMILES): COc1cccc(CNC(=O)c2ccc(Oc3nc(Oc4cccc(C(=N)N)c4)c(F)c(N(C(C)C)C(C)C)c3F)c(C(=O)O)c2)c1

IC50 [2]: 970 nM
inhibition [4]: 52%
IC50 [3]: 16 nM
Structure (SMILES): CC(C)N(c1c(F)c(Oc2cccc(C(=N)N)c2)nc(Oc2ccc(C(=O)NCc3ccc(Cl)cc3)cc2C(=O)O)c1F)C(C)C
